This note sets out measurements from patent publication US10633416B2 (BGI SHENZHEN CO., LIMITED, priority 2014, dated 2020).

The assay concerns potassium ion channel current of the DRG neurons. It is filed as cell-based, SD rats. The following applies: 5 mM.

Regarding `Nc1ccncc1` [4AP, 4-aminopyridine], the Current inhibition rate came out at 0.338 and the “Current recorded after loading” value was 0.9766 nA.
